Laboratory results published in publication PMC7143510, “In Vitro Efficiency of Antimicrobial Peptides against Staphylococcal Pathogens Associated with Canine Pyoderma” (Animals : an Open Access Journal from MDPI, 2020).
Where no end group is shown, it is not given here.

What was measured:
[1] = system: canine S. aureus strains; experiment: MBC, subculture from MIC assay; format: cell-based, Staphylococcus aureus; details: 48 h
Experimental: (§1) The loopful (10 µl) of the tested sample was transferred to Triptic Soy Broth (TSB, BD Difco) and incubated at 37 °C for 48 h. MBC was taken as the lowest concentration of each peptide at which staphylococcal colonies were no longer viable on the subculture.

[2] = system: canine S. aureus strains; experiment: MIC, broth microdilution (CLSI); format: cell-based, Staphylococcus aureus
Experimental: (§2) Sixty-six well-characterized staphylococcal strains (60 S. pseudintermedius and 6 S. aureus strains) were selected from the archived previously described collection. This study was conducted based on a retrospective analysis of staphylococcal canine strains isolated and archived at the Laboratory of Department of Medical Microbiology of MUG during routine clinical laboratory procedures. All samples were routinely collected by a veterinarian during the course of infection treatment or control visits, not specifically for this research. The animals were swabbed only after the owner’s consent was given, as we stated in the previous published study.
(§3) Staphylococcal strains were classified as multidrug-resistant (MDR) when they were not susceptible to at least one agent in three different classes of antimicrobials. Sixty examined S. pseudintermedius strains included thirty multidrug-resistant strains (MDRSP) and seven methicillin-resistant strains (MRSP). Six canine S. aureus strains, including three multidrug-resistant strains (MDRSA). S. pseudintermedius strains, including MDRSP (n = 30) and MRSP (7) strains, were resistant to: amoxicillin (61.6%), clindamycin (48.3%), erythromycin (45%), gentamicin (33.3%), chloramphenicol (26.6%), sulfamethoxazole/trimethoprim (25%), tetracycline (20%), cefadroxil (11.6%), oxacillin (11.6%) and ciprofloxacin (10%). Six S. aureus strains, including MDRSA (n = 3), were resistant to: amoxicillin (3/6), erythromycin (3/6), gentamicin (3/6), clindamycin (2/6), chloramphenicol (1/6), sulfamethoxazole/trimethoprim (1/6) and doxycycline (1/6). The following reference strains were used: S. aureus ATCC 6538 (MSSA), S. aureus ATCC 43300 (MRSA), S. intermedius PCM 2405. Both the reference- and clinical strains were stored at −80 °C in Tryptic Soy Broth (TSB, Becton–Dickinson, USA) supplemented with 15% glycerol.
(§4) The antimicrobial susceptibility of each strain to the tested peptides was determined using the minimal inhibitory concentrations (MIC) microdilution method as recommended by the Clinical Laboratory Standards Institute (CLSI) guidelines. Briefly, the staphylococcal strains were grown overnight on a Columbia blood agar (Graso Biotech, Poland) at 37 °C. Isolated colonies were suspended in saline solution and adjusted to a 0.5 McFarland standard. The bacterial suspension was diluted ~ 1:100 to a final concentration of 1 × 10^6 colony forming units (cfu/mL). Two-fold serial dilutions of each tested peptide in Mueller–Hinton Broth 2 (Sigma–Aldrich) were added (100 µL) to polypropylene 96-well plates containing bacterial inoculum (100 µL) and were incubated at 37 °C for 18 h. All clinical and reference strains were tested in duplicate. Bacterial growth was assessed visually after incubation and MIC was recorded as the lowest drug concentration at which an observable growth was inhibited. The MIC50 and MIC90 values were defined as the lowest concentrations of peptides at which 50% and 90% of the strains were inhibited, respectively.

[3] = system: canine S. pseudintermedius strains; experiment: MBC, subculture from MIC assay; format: cell-based, Staphylococcus pseudintermedius; details: 48 h
Experimental: as §1

[4] = system: canine S. pseudintermedius strains; experiment: MIC, broth microdilution (CLSI); format: cell-based, Staphylococcus pseudintermedius
Experimental: as §2, §3, §4

[5] = canine S. aureus (II), 6 strains, 10 µl subcultured in TSB, 37 °C
[6] = canine S. aureus (II), 6 strains, Mueller–Hinton Broth 2, 1 × 10^6 cfu/mL, 37 °C, 18 h, visual, duplicate
[7] = canine S. aureus (II), 6 strains, lowest concentration inhibiting 50% of strains
[8] = canine S. aureus (II), 6 strains, lowest concentration inhibiting 90% of strains
[9] = canine S. pseudintermedius (I), 60 strains, 10 µl subcultured in TSB, 37 °C
[10] = canine S. pseudintermedius (I), 60 strains, Mueller–Hinton Broth 2, 1 × 10^6 cfu/mL, 37 °C, 18 h, visual, duplicate
[11] = canine S. pseudintermedius (I), 60 strains, lowest concentration inhibiting 50% of strains
[12] = canine S. pseudintermedius (I), 60 strains, lowest concentration inhibiting 90% of strains

| Substance | MBC Median (IQR) [1, 5] | MIC Median (IQR) [2, 6] | MIC50 [2, 7] | MIC90 [2, 8] | MBC Median (IQR) [3, 9] | MIC Median (IQR) [4, 10] | MIC50 [4, 11] | MIC90 [4, 12] | MBC Median (IQR) ([1]; canine strains) | MIC50 ([2]; canine strains, 18 h) | MIC90 ([2]; canine strains, 18 h) | MIC Median (IQR) ([2]; canine strains, 18 h) | MBC Median (IQR) [3] | MIC50 ([4]; 18 h) | MIC90 ([4]; 18 h) | MIC Median (IQR) ([4]; 18 h) |
| --- | --- | --- | --- | --- | --- | --- | --- | --- | --- | --- | --- | --- | --- | --- | --- | --- |
| GLFDIIKKIAESF-NH2 [Aurein 1.2] | 128 (128–224) µg/mL | 128 (128–128) µg/mL | 128 µg/mL | 256 µg/mL | 64 (64–64) µg/mL | 32 (32–32) µg/mL | 32 µg/mL | 32 µg/mL |  |  |  |  |  |  |  |  |
| GIGKFLKKAKKFGKAFVKILKK-NH2 [Pexiganan] |  |  |  |  |  |  |  |  | 8 (8–8) µg/mL | 4 µg/mL | 8 µg/mL | 6 (4–8) µg/mL | 4 (2–4) µg/mL | 4 µg/mL | 4 µg/mL | 4 (2–4) µg/mL |
| KWKLFKKIGAVLKVL-NH2 [CAMEL] | 4 (4–4) µg/mL | 4 (4–4) µg/mL | 4 µg/mL | 4 µg/mL | 4 (2–4) µg/mL | 2 (2–4) µg/mL | 2 µg/mL | 4 µg/mL |  |  |  |  |  |  |  |  |
| GVIDAAKKVVNVLKNLF-NH2 [Uperin 3.6] |  |  |  |  |  |  |  |  | 16 (16–16) µg/mL | 8 µg/mL | 16 µg/mL | 8 (8–14) µg/mL | 2 (2–4) µg/mL | 2 µg/mL | 2 µg/mL | 2 (2–2) µg/mL |
| FLPLIGRVLSGIL-NH2 [Temporin A] |  |  |  |  |  |  |  |  | 8 (8–14) µg/mL | 8 µg/mL | 8 µg/mL | 8 (8–8) µg/mL | 8 (8–8) µg/mL | 8 µg/mL | 8 µg/mL | 8 (4–8) µg/mL |
| GLFDVIKKVASVIGGL-NH2 [Citropin 1.1] |  |  |  |  |  |  |  |  | 12 (8–16) µg/mL | 8 µg/mL | 16 µg/mL | 8 (8–14) µg/mL | 4 (4–4) µg/mL | 4 µg/mL | 4 µg/mL | 4 (4–4) µg/mL |
